Tested on: Akt
Test: Akt Lum
Format: cell-based

| IC50 [µM] | Structure (SMILES) |
| --- | --- |
| 2.55 | CC(F)(F)CNC(=O)N1Cc2nc(N)nc(-c3c(Cl)cc(Cl)cc3OCCn3cc(C#N)cn3)c2C1 [Example 11, 2-amino-4-{2,4-dichloro-6-[2-(4-cyano-1H-pyrazol-1-yl)ethoxy]phenyl}-N-(2,2-difluoropropyl)-5,7-dihydro-6H-pyrrolo[3,4-d]pyrimidine-6-carboxamide] |
| 18.3 | Cc1cc(C(F)(F)F)n(CCOc2cc(Cl)cc(Cl)c2-c2nc(N)nc3c2CN(C(=O)NC2CC2)C3)n1 [Example 15, 2-amino-N-cyclopropyl-4-(2,4-dichloro-6-{2-[3-methyl-5-(trifluoromethyl)-1H-pyrazol-1-yl]ethoxy}phenyl)-5,7-dihydro-6H-pyrrolo[3,4-d]pyrimidine-6-carboxamide] |
| 0.0209 | Cc1cc(Cl)cc(OCCn2cc(F)cn2)c1-c1nc(N)nc2c1CN(C(=O)NC13CC(C1)C3)C2 [Example 7, 2-amino-N-bicyclo[1.1.1]pent-1-yl-4-{4-chloro-2-[2-(4-fluoro-1H-pyrazol-1-yl)ethoxy]-6-methylphenyl}-5,7-dihydro-6H-pyrrolo[3,4-d]pyrimidine-6-carboxamide] |
| 0.66 | Nc1nc2c(c(-c3c(Cl)cc(Cl)cc3OCCn3ccc(C(F)(F)F)n3)n1)CN(C(=O)NC1CC1)C2 [Example 13, 2-amino-N-cyclopropyl-4-(2,4-dichloro-6-{2-[3-(trifluoromethyl)-1H-pyrazol-1-yl]ethoxy}phenyl)-5,7-dihydro-6H-pyrrolo[3,4-d]pyrimidine-6-carboxamide] |
| 0.104 | Nc1nc2c(c(-c3c(Cl)cc(Cl)cc3OCCn3cc(Cl)cn3)n1)CN(C(=O)NC1CC1)C2 [Example 2, 2-amino-N-cyclopropyl-4-{2,4-dichloro-6-[2-(4-chloro-1H-pyrazol-1-yl)ethoxy]phenyl}-5,7-dihydro-6H-pyrrolo[3,4-d]pyrimidine-6-carboxamide] |
| 9.96 | Cc1cc(C(F)(F)F)nn1CCOc1cc(Cl)cc(Cl)c1-c1nc(N)nc2c1CN(C(=O)NC1CC1)C2 [Example 16, 2-amino-N-cyclopropyl-4-(2,4-dichloro-6-{2-[5-methyl-3-(trifluoromethyl)-1H-pyrazol-1-yl]ethoxy}phenyl)-5,7-dihydro-6H-pyrrolo[3,4-d]pyrimidine-6-carboxamide] |
| 0.175 | Nc1nc2c(c(-c3c(Cl)cc(Cl)cc3OCCn3cc(Br)cn3)n1)CN(C(=O)NC1CC1)C2 [Example 12, 2-amino-4-{2-[2-(4-bromo-1H-pyrazol-1-yl)ethoxy]-4,6-dichlorophenyl}-N-cyclopropyl-5,7-dihydro-6H-pyrrolo[3,4-d]pyrimidine-6-carboxamide] |
| 6.69 | Nc1nc2c(c(-c3c(Cl)cc(Cl)cc3OCCn3nccc3C(F)(F)F)n1)CN(C(=O)NC1CC1)C2 [Example 14, 2-amino-N-cyclopropyl-4-(2,4-dichloro-6-{2-[5-(trifluoromethyl)-1H-pyrazol-1-yl]ethoxy}phenyl)-5,7-dihydro-6H-pyrrolo[3,4-d]pyrimidine-6-carboxamide] |
| 0.111 | Nc1nc2c(c(-c3c(Cl)cc(Cl)cc3OCCn3cc(F)cn3)n1)CN(C(=O)NC1CC1)C2 [Example 10, 2-amino-N-cyclopropyl-4-{2,4-dichloro-6-[2-(4-fluoro-1H-pyrazol-1-yl)ethoxy]phenyl}-5,7-dihydro-6H-pyrrolo[3,4-d]pyrimidine-6-carboxamide] |
| 0.0525 | Cc1cc(Cl)cc(OCCn2cccn2)c1-c1nc(N)nc2c1CN(C(=O)NC13CC(C1)C3)C2 [Example 3] |

Source: patent US8080556B2, “2-amino pyrimidine compounds as potent HSP-90 inhibitors” (Pfizer Inc., priority 2008, dated 2011)
